Data as given in patent US20160058829A1, “ANTI-FIBROTIC PEPTIDES AND THEIR USE IN METHODS FOR TREATING DISEASES AND DISORDERS CHARACTERIZED BY FIBROSIS” (Thrasos Innovation, Inc., priority 2011, published 2016).
Positions of bridges follow the written chain, without caps; N, C: chain ends.

Legend:
[1] = system: human proximal tubule epithelial cells (HK2); assay: Cisplatin-induced apoptosis in HK-2 cells (Annexin V); format: cell-based; settings: THR-123 250 μM, cisplatin 10 μM
Procedure: FIG. 50A-FIG. 50D THR-123 inhibits Cisplatin-induced apoptosis in human proximal tubule epithelial cells (HK2). Immortalized human proximal tubular epithelial-derived HK-2 (Human Kidney-2) cells are passaged on 24-well plates (˜25,000 to 30,000 cells/well). The cells are exposed either K-SFM media alone or K-SFM medium containing THR-123. BMP7 serves as a positive control of experiment. Two hours after incubation, cells are exposed to cisplatin for 60 hours (FIG. 50A-FIG. 50C). FIG. 50D. Cells are exposed to cisplatin for 6 hours and subsequently THR-123 was added into the media. Apoptosis is determined by staining of AnnexinV-FITC Apoptosis detection kit (TACS Annexin V-FITC) (R&D Systems), followed by fluorescence microscopy. Final concentration: THR-123 250 μM, BMP-7 1 μg/ml, cisplatin 10 μm.
HK-2 cells are passaged on 24-well plates (25,000-30,000 cell/well). Once cells attached on the well, cells are exposed either K-SFM media alone or K-SFM medium containing THR-123. BMP7 serves as a positive control of experiment. Two hours after incubation, cells are exposed to cisplatin for 60 hours. Apoptosis is determined by staining of AnnexinV-FITC, followed by fluorescence microscopy. Final concentration: THR-123 250 μM, BMP7 1 μg/ml, cisplatin 10 μM.

[2] = system: COL4A3−/− mice; assay: COL4A3 deficient mice (Alport syndrome model); format: in vivo
From the text: FIG. 64a-FIG. 64N […] inhibits Renal Fibrosis in the COL4A3 Deficient mice. FIG. 64A-FIG. 64C. Representative histological PAS staining of glomeruli from 16 weeks old wild type (FIG. 64A); 16 weeks old COL4A3−/− (FIG. 64B), and 16 weeks old COL4A3−/− mice treated with THR-123 (FIG. 64C), original magnification ×400. D-F. Representative histological Masson's trichrome staining of kidneys from 16 weeks old wild type (FIG. 64D); 16 weeks old COL4A3−/− (FIG. 64E), and 16 weeks old COL4A3−/− mice treated with THR-123 (FIG. 64F), original magnification ×100. FIG. 64G-FIG. 64I. Morphometric analyses from 16 weeks old wild type (n=5), COL4A3−/− (n=5) and COL4A3−/− mice treated with THR-123 (n=5) assessing percent normal glomeruli (FIG. 64G), tubular damage index (FIG. 64H), relative interstitial volume (FIG. 64I). FIG. 64J. Blood urea nitrogen measurement for […] wild type (n=5), 16 weeks old COL4A3−/− (n=5) and COL4A3−/− mice treated with THR-123 (n=5). FIG. 64K-FIG. 64M. FSP1/E-cadherin immunolabeling of kidney. Representative results are shown. FIG. 64N. Percent of E-cadherin/FSP1double positive tubule, 500 tubules per slide, 5 slides per experimental group.
Eight weeks old COL4A3^−/− mice are treated either THR-123 (p.o. 5 mg/Kg/day) or vehicle. COL4A3^−/− mice are sacrificed at 16 weeks of age.
For morphometric analyses of percent normal glomeruli, 100 glomeruli were counted per slide from random fields of view, and five slides were counted per experimental group. The number of normal glomeruli was expressed as a percentage of the total number of glomeruli counted.

[3] = system: Alk-3 deleted mice and control mice, NTN; assay: NTN in Alk-3 deleted (γGT-Cre; Alk3 flox/flox) and control mice; format: in vivo
Procedure: FIG. 76A-FIG. 76T THR-123 acts on tubule Alk3 as a receptor in kidney disease models. FIG. 76A-FIG. 76D, The effect of THR-123 on the IRI model kidney injury in Alk3^flox/flox and […]GTCre; Alk3^flox/flox mice. After ischemia reperfusion injury the mice were given THR-123 orally (5 mg/kg/day) till the day of sacrifice. FIG. 76A-FIG. 76C, the representative H&E staining picture of indicated group of mice are shown. FIG. 76D. Percentage renal tubular necrosis in IRI. Ten fields in each group were analyzed. Data are shown as mean±s.e.m. in the graph. FIG. 76E-FIG. 76T, The effect of THR-123 on the NTN model kidney injury in Alk3^flox/flox and gGTCre; Alk3^flox/flox mice. Six weeks after NTN was introduced in the indicated groups of mice, mice were treated with PBS or THR-123 orally. FIG. 76E-FIG. 76H, the representative MTS staining picture of indicated group of mice are shown. FIG. 76I, Morphometric analyses from 9 weeks of NTN models in indicated groups. FIG. 76J-FIG. 76N, Macrophage accumulation analysis in the kidney of NTN model in Alk3^flox/flox and gGTCre; Alk3^flox/flox mice. FIG. 76J-FIG. 76M, Mac-1 immunofluorescence study of indicated groups of mice. FIG. 76N, The number of macrophages per field of view (×400 magnification) was assessed by counting positively labeled cells in 5 random fields of view per slide, with 5 slides per experimental group. Data are shown as mean±s.e.m. in the graph. FIG. 76O-FIG. 76S, EMT analysis, FIG. 76O-FIG. 76R, E-cadherin/FSP1 immunolabeling of kidney in NTN-induced Alk3^flox/flox and GTCre; Alk3^flox/flox mice treated with either PBS or THR-123. FIG. 76S. Percent of E-cadherin/FSP1 double positive tubule. 500 tubules per slide, 5 slides per experimental group were analyzed. Data are expressed as mean±s.e.m. in the graph. FIG. 76T, Blood urea nitrogen measurement in 6 and 9 weeks of NTN in indicated groups of mice (all n=4).
FIG. 79A-FIG. 79D. Tubule cell apoptosis was analyzed in frozen kidney sections of indicated groups of animals by TUNEL staining. Representative pictures were shown. FIG. 79D. Quantification of TUNEL positive tubule cells. The number of TUNEL positive tubules per field of view (×200 magnification) was assessed by counting positively labeled cells in 5 random fields of view per slide, with 5 slides per experimental group.
Alk-3 flox mice are provided by Dr. Yuji Mishina, National Institutes of Health with material transfer agreements. γGT-Cre mice are provided from Dr. Eric Neilson, Vanderbilt University Medical Center. NTN is induced by the method described above.

(H)-CYFDDSSNVLCKKYRS-(OH) (H-CYFDDSSNVLCKKYRS-OH; disulfide 1-11; SMILES CC(C)C[C@@H]1NC(=O)[C@H](C(C)C)NC(=O)[C@H](CC(N)=O)NC(=O)[C@H](CO)NC(=O)[C@H](CO)NC(=O)[C@H](CC(=O)O)NC(=O)[C@H](CC(=O)O)NC(=O)[C@H](Cc2ccccc2)NC(=O)[C@H](Cc2ccc(O)cc2)NC(=O)[C@@H](N)CSSC[C@@H](C(=O)N[C@@H](CCCCN)C(=O)N[C@@H](CCCCN)C(=O)N[C@@H](Cc2ccc(O)cc2)C(=O)N[C@@H](CCCNC(=N)N)C(=O)N[C@@H](CO)C(=O)O)NC1=O) [SEQ ID NO: 1]
cisplatin induced apoptosis [1]: inhibited | blood urea nitrogen level ([2]; THR-123 p.o. 5 mg/Kg/day): significantly improved blood urea nitrogen level | tubular atrophy and interstitial fibrosis ([2]; THR-123 p.o. 5 mg/Kg/day): significantly inhibited tubular atrophy and interstitial fibrosis | glomerular abnormalities ([2]; THR-123 p.o. 5 mg/Kg/day, 8 to 16 weeks of age): did not alter glomerular abnormalities | acquisition of an EMT program ([2]; mouse, in vivo): inhibited such acquisition of an EMT program | macrophage infiltration ([2]; mouse, in vivo): inhibited macrophage infiltration | phospho-smad1/5 accumulation ([2]; mouse, in vivo): increased accumulation of phospho-smad1/5 | renal function (blood urea nitrogen), NTN ([3]; Alk3-deleted mice): not realized | EMT program in the tubules, NTN ([3]; Alk3 deleted mice): did not inhibit | apoptosis, NTN kidney ([3]; Alk3 deleted mice): no effect on apoptosis | macrophage accumulation in the kidney, NTN ([3]; Alk3 deleted mice): did not inhibit | renal injury and fibrosis, NTN ([3]; Alk-3 deleted mice): no efficacy | EMT program in the tubules, NTN ([3]; control mice): inhibition | macrophage accumulation in the kidney, NTN ([3]; control mice): inhibition | renal function (blood urea nitrogen), NTN ([3]; control mice): restored renal function | renal injury and fibrosis, NTN ([3]; control mice): successful in controlling renal injury and fibrosis | apoptosis, NTN kidney ([3]; wild type kidney): inhibit apoptosis
